Test results from patent US7495027B2, “3-aryl-4-hydroxyfuranone compounds and the human and animal health use thereof” (Wyeth, priority 2003, dated 2009).
Values after ≈ are worked out from the molar mass of the structure shown. Read-outs that look alike come from different tables or passages of the source.

Tests used:
staphylococci = test: Minimum inhibitory concentration, microdilution broth method, staphylococci; format: cell-based; conditions: Staphylococcus aureus, Mueller-Hinton broth, 18-22 hours at 35° C.
Summary of the method: (§1)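 Broth microdilution per NCCLS M7-A5 (2000). Staphylococci and enterococci grown in Mueller-Hinton broth; streptococci in Mueller-Hinton broth with 5% horse blood (LHB). Panel includes recent clinical isolates resistant to methicillin, penicillin and/or vancomycin.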

[1] = target: E. coli UDP-N-acetylglucosamine enolpyruvoyl transferase, MurA (Escherichia coli, UniProt P0A749); test: biochemical; conditions: (E) E. coli enzyme
Chain of E. coli UDP-N-acetylglucosamine enolpyruvoyl transferase, MurA (P0A749 whole entry): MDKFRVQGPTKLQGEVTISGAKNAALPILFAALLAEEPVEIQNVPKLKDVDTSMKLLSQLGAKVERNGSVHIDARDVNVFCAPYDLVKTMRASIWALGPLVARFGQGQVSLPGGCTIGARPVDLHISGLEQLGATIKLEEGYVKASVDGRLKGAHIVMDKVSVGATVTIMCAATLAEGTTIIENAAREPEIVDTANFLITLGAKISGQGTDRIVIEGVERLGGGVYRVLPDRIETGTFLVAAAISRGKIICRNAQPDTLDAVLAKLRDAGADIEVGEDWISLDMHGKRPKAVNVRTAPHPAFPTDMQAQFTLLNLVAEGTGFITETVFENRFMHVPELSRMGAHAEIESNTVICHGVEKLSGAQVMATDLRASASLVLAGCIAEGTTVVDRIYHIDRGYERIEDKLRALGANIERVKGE
Summary of the method: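 Enzyme in 50 mM Tris/HCl pH 8.0 with 5 mM DTT and 20% glycerol was pre-incubated 10 min at 37° C with test compound in DMSO/water. Tris/BME and assay buffer then started the 1 hr, 37° C reaction, with a baseline 340 nm reading taken at start. Stop solution followed, and colour developed 30 minutes.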

[2] = target: E. coli Uridine-diphosphate-N-acetylmuramoyl-L-alanine: D-glutamate liease, MurD (Escherichia coli, UniProt P14900); test: biochemical; conditions: (E) E. coli enzyme
Chain of E. coli Uridine-diphosphate-N-acetylmuramoyl-L-alanine: D-glutamate liease, MurD (P14900 whole entry): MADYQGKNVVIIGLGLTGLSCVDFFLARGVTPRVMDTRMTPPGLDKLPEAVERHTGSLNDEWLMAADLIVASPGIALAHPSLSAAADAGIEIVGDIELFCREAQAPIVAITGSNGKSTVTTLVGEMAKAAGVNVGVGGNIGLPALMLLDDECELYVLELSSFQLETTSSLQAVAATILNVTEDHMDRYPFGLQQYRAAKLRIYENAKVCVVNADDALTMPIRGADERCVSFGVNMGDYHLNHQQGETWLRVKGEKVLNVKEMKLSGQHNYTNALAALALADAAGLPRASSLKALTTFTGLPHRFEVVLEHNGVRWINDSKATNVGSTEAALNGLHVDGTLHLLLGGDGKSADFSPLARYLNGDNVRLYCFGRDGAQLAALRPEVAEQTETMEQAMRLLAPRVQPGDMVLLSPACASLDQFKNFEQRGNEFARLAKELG
Summary of the method: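 Compound working solutions reach 100 μg/mL in 50 mM Tris/HCl (pH 8.5) after dilution of 10 mg/mL DMSO stocks; final level in the well not given here. Reaction buffer finals: 2 mM ATP, 50 mM MgCl2, 83 mM Tris/HCl, pH 8.0.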

Streptococci = test: Minimum inhibitory concentration, microdilution broth method, streptococci; format: cell-based; conditions: S. pneumo GC 1894; Mueller-Hinton broth with 5% horse blood, 18-22 hours at 35° C.
Summary of the method: as §1

[3] = target: E. coli Enopyruvyl-UPD-N-acetylglucosamine reductase, Mur B (Escherichia coli, UniProt P08373); test: biochemical; conditions: (E) E. coli enzyme; for IC50: read-out: MurB IC50 (converted)
Chain of E. coli Enopyruvyl-UPD-N-acetylglucosamine reductase, Mur B (P08373 whole entry): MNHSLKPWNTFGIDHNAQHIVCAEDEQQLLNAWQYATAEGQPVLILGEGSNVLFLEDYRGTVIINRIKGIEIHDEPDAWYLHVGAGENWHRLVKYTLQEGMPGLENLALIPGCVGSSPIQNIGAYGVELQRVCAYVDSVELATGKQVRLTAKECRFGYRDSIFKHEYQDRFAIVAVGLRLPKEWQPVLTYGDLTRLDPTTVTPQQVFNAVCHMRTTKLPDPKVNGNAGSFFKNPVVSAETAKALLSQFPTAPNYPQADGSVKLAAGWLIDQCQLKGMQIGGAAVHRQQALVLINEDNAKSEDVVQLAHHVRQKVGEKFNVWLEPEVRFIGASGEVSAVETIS

enterococci = test: Minimum inhibitory concentration, microdilution broth method, enterococci; format: cell-based; conditions: Enterococcus faecalis, Mueller-Hinton broth, 18-22 hours at 35° C.
Summary of the method: as §1

[4] = target: E. coli Uridine-diphosphate-N-acetvimuramoyl: L-alanine lipase, MurC (Escherichia coli, UniProt P17952); test: Inhibitory activity against MurC (E. coli); format: biochemical; conditions: (E) E. coli enzyme; for IC50: read-out: MurC IC50 (converted)
Chain of E. coli Uridine-diphosphate-N-acetvimuramoyl: L-alanine lipase, MurC (P17952 whole entry): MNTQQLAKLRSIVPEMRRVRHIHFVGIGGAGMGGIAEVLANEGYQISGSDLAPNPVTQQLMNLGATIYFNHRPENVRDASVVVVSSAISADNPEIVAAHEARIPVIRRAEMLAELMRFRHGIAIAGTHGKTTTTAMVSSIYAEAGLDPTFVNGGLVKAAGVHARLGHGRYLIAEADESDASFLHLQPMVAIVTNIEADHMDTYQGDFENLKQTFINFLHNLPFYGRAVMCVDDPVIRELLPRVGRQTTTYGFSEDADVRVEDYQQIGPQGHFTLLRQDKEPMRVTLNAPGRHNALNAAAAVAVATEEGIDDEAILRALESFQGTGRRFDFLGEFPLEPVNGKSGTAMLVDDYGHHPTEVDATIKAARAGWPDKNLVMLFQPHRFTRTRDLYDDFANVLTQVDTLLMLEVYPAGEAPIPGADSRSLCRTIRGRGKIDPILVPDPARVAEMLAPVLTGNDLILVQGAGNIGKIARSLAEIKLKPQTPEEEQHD

[5] = target: T1, S. aureus Uridine-diphosphate-N-acetylmuramoyl-L-alanine: D-glutamate liease, MurD (Staphylococcus aureus, UniProt Q2FZ92); test: biochemical; conditions: (S) S. aureus enzyme
T1 sequence (Q2FZ92 1-449): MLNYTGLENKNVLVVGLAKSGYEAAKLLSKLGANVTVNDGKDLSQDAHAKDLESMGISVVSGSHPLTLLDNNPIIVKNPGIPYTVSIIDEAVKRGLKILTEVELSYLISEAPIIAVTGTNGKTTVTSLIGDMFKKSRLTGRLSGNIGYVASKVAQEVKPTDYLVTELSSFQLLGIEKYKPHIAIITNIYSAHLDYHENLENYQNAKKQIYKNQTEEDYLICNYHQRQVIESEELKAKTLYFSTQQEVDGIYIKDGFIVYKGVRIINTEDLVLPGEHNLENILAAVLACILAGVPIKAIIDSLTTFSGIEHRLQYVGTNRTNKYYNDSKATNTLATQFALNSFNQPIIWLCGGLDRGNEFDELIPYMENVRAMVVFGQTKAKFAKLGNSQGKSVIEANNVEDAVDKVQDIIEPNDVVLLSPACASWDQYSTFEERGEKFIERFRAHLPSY
Experimental: S. aureus and E. coli Uridine-diphosphate-N-acetylmuramoyl-L-alanine: D-glutamate liease, MurD
(§2) Preparation of Enzyme Solution:
(§3) Preparation of Test Compound Solutions:
(§4) All test solutions are prepared in DMSO as 10 mg/mL, then diluted with 50 mM Tris/HCl (pH 8.5) to 100 μg/mL.
(§5) Preparation of Stop Solution:
In this evaluation, the inhibitory activity of a test compound against MurD, the enzyme which catalyzes the fourth step of bacterial cell wall biosynthesis is determined.

[6] = target: T2, S. aureus Enopyruvyl-UPD-N-acetylglucosamine reductase, Mur B (Staphylococcus aureus, UniProt P61431); test: biochemical; conditions: (S) S. aureus enzyme; read-out: MurB IC50 (converted)
T2 sequence (P61431 1-307): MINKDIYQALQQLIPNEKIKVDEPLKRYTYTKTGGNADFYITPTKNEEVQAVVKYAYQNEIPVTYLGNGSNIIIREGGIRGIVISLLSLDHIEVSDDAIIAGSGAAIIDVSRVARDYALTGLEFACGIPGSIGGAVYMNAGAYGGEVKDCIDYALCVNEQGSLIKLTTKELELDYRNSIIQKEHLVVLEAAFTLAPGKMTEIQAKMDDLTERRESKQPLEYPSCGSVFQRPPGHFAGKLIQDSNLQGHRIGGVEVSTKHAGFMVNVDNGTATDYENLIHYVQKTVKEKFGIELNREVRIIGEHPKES

[7] = target: T3, S. aureus Uridine-diphosphate-N-acetvimuramoyl: L-alanine lipase, MurC (Staphylococcus aureus, UniProt Q2FXJ0); test: biochemical; conditions: (S) S. aureus enzyme; read-out: MurC IC50 (converted)
T3 sequence (Q2FXJ0 1-437): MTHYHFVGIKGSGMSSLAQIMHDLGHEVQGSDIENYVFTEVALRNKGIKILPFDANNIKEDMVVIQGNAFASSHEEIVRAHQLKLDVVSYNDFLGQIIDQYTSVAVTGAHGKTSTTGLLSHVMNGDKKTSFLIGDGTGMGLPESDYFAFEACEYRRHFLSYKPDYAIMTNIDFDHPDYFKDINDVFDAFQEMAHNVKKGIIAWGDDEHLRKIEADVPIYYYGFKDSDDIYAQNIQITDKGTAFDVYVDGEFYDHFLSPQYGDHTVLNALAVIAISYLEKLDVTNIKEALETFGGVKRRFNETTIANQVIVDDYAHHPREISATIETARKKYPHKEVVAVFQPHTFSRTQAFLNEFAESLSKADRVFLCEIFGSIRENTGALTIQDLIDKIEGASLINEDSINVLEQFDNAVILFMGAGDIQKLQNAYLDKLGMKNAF
Experimental: S. aureus and E. coli Uridine-diphosphate-N-acetvimuramoyl: L-alanine lipase, MurC
as §2
A 1 mg/mL stock solution of MurC is prepared in a buffer consisting of 20 mM Tris/HCl (pH 8.5) with 2.5 μM BME. The stock solution is further diluted with the buffer to give a final enzyme concentration of 100 μg/mL for the E. coli stock solution and 70 μg/mL for the S. aureus stock solution.
as §3, §4, §5
The stop solution is prepared by stirring 1 part 4.2% ammonium molydbate in 4N HCl with 2 parts 0.045% malachite green for 30 min.
In this evaluation, the inhibitory activity of a test compound against MurC, the enzyme which catalyzes the third step of bacterial cell wall bioxynthesis is determined. Experiments are performed by adding 2.5 μl buffer, 2.5 μl 0.5M NH4SO2, 5 μl 2 μM L-Ala, 5 μl enzyme solution and 6.5 μl test compound solution to each well in a 96-well microplate. After a pre-incubation period of 10 mins. at 23° C., 3.75 μl of a 0.75 μM solution of UDP-MurNac is added to each well. Following an incubation period of 10 mins. at 37° C., 210 μl stop solution and 50 μl of a 34% w/v sodium citrate solution are added and color is allowed to develop for 10 mins. at 23° C. (Lanzetta et al., Analytical Biochemistry, 1979, 95) Optical density readings are taken at 660 nm using a Molecular Devices Spectra Max 250 with Soft Max software. Controls are performed using the same procedure and omitting the addition of UDP-MurNac. […]
Using these values the IC50 is determined by linear regression analysis.

[8] = S. aureus GC 1131, read-out: MIC S. aureus GC 1131
[9] = S. aureus GC 4543, read-out: MIC S. aureus GC 4543
[10] = E. faecalis GC 2242, read-out: MIC E. faecalis GC 2242
[11] = E. faecalis GC 4555, read-out: MIC E. faecalis GC 4555

Compound	MIC (staphylococci; [8]) [µg/mL]	MIC (staphylococci; [9]) [µg/mL]	IC50 [1] [µM]	IC50 [2] [µM]	MIC (Streptococci) [µg/mL]	IC50 [3] [µM]	MIC (enterococci; [10]) [µg/mL]	MIC (enterococci; [11]) [µg/mL]	IC50 [4] [µM]	melting point [°C]	IC50 [5] [µM]	IC50 [6] [µM]	MurB IC50 [3] [µg/mL]	MurC IC50 [4]	IC50 [7] [µM]
Cc1ccc(/C=C2\OC(=O)C(c3cccc(C(F)(F)F)c3)=C2O)s1 [Example 12]	64 (≈ 182 µM)	64 (≈ 182 µM)	> 71	> 71	2 (≈ 5.68 µM)	> 71	64 (≈ 182 µM)	> 128	42.6	249 to 251					
O=C1O/C(=C\c2cccc(-c3ccc(Cl)c(Cl)c3)c2)C(O)=C1c1ccc(Cl)c(Cl)c1 [Example 135]	32 (≈ 66.9 µM)	1 (≈ 2.09 µM)	4.18		1 (≈ 2.09 µM)	6.27	4 (≈ 8.37 µM)	4 (≈ 8.37 µM)	12.5		12.5	6.27			
COc1ccc(C2=C(O)/C(=C/c3cccc4ccccc34)OC2=O)cc1 [Example 6]	32 (≈ 92.9 µM)	64 (≈ 186 µM)	> 72.6	> 72.6	8 (≈ 23.2 µM)	> 72.6	32 (≈ 92.9 µM)	> 128	46.5			61			
O=C1O/C(=C\c2cccc3ccccc23)C(O)=C1c1cccc(C(F)(F)F)c1 [Example 5]	8 (≈ 20.9 µM)	8 (≈ 20.9 µM)			0.5 (≈ 1.31 µM)		8 (≈ 20.9 µM)	16 (≈ 41.8 µM)				15.7	8	6 (E) μg/mL	
O=C1O/C(=C\c2cccc3ccccc23)C(O)=C1c1ccc(Cl)cc1 [Example 4, 3-(4-Chlorophenyl)-4-hydroxy-5-[(Z)-1-naphthylmethylidene]-furan-2-(5H)-one]	16 (≈ 45.9 µM)	16 (≈ 45.9 µM)			1 (≈ 2.87 µM)		8 (≈ 22.9 µM)	32 (≈ 91.7 µM)			68.8			7 µg/mL	45.9
